This passage reports melting point results from a melting point compilation (Tetko et al.; mined from patent text by program, amines drawn as free bases though some values may be those of a salt).

Broadly, the melting point is the temperature, or range, at which the solid turns liquid.

Turning to `CCCC1=NN(c2ccccn2)C(=O)C1=CNc1ccccc1CC`, the melting point came out at 151 °C.
Then `N#CCCC(C#N)CSc1ccc(Cl)c(Cl)c1` (centres undefined), with 53 to 55 °C.
On to `COC(=O)c1ccc(NC(=O)OCC2c3ccccc3-c3ccccc32)cc1O`, for which the melting point lay within 156 to 159 °C.
In turn, `COC(=O)[C@@H](N)Cc1cc(I)c(Oc2ccc(O)cc2)c(I)c1` showed a melting point of 173 °C.
On to `Cc1c(Sc2ccccc2S(C)(=O)=O)c2cc(NS(C)(=O)=O)ccc2n1CC(=O)O`, for which the melting point lay in the range of 227 to 230 °C.
As for `CS(=O)(=O)c1ccc(-c2nn(CC#N)c(C(F)(F)F)c2-c2ccc(F)cc2)cc1`, the melting point fell in the range of 192 to 194 °C.
`CCOCc1nc2c(N)nc3cc(OCCCc4cccnc4)ccc3c2n1CC(C)(C)O`: the melting point was in the range of 160 to 161 °C.
In turn, `CC(=O)OCCSC(F)(F)C(O)(Cn1cncn1)c1ccc(F)cc1F` (centres undefined) displayed a melting point of 79 to 82 °C.
Then `Cc1c(C(=O)O)cnn1-c1nc(-c2ccc(C(F)(F)F)cc2)cs1`, with 273 to 274 °C; and `CC(C)(C)OC(=O)N[C@@H]1Cc2ccccc2C[C@H]1O` (relative stereo), with 149 to 150 °C.
In the case of `O=[N+]([O-])c1cccc(-c2cccc([N+](=O)[O-])c2)c1`, the melting point is 200 °C.
Then `N=C(N)NC(=O)c1cc(-c2cccc(N)c2)nc2ccccc12`, with 209 to 210 °C; and `Cc1c(C#N)cc(C(C)(C)C)c(O)c1C(=O)Nc1ccc(S(=O)(=O)c2ccc(Br)cc2)cc1C(F)(F)F`, with 221 to 223 °C.
Compound `CCC(C)(O)C1(c2cccc(OC)c2)CCN(C)CC1` (centres undefined) returned a melting point of 134 to 135 °C.
Turning to `COc1ccc2c(c1)NC(c1ccccc1)CO2` (centres undefined), the melting point lay in the range of 79 to 81 °C.
Compound `Oc1nsc(OC2CCCCC2)n1` came in with a melting point of 105 °C.
The compound `O=C(NC1CCc2[nH]c3ccc(OC(F)(F)F)cc3c2C1)OCc1ccccc1` (centres undefined) had a melting point of 123 to 126 °C.
`CN(C)Cc1nnc2n1-c1ccc(Br)cc1C(c1ccccn1)=NC2` displayed a melting point of 163 to 164 °C.
With `Cn1ncc2c(=S)n3c(nc21)SCC3`, the melting point fell in the range of 199 to 200 °C.
As to `CC12CC(=O)C3C(CCC4CC=CCC43C)C1CCC2C#N` (centres undefined), the melting point is 189 to 191 °C.
As to `COC(=O)C1=C(C)NC(C)=CC1c1ccccc1OCc1ccc(C)cc1` (centres undefined), the melting point lay in the range of 107 to 109 °C.
Compound `COc1cccc(C(O)CNC(=C[N+](=O)[O-])NCCCl)c1` (centres undefined) had a melting point of 127 to 130 °C.
The compound `Cc1ccc(S(=O)(=O)OCC2CN(C(=O)Oc3ccccc3)CCO2)cc1` (centres undefined) came in with a melting point of 101 to 103 °C.
For `Cn1cc(I)c(=O)n(C)c1=O`, the melting point lay in the range of 226 to 228 °C.
In turn, `C[Si](C)(C)OC(C(N)=O)(C(N)=O)c1ccc(Cl)c(Cl)c1` yielded a melting point of 156 °C.
Then `C#CCN(C)c1nccc(Oc2ccc(NC(=O)c3cc(F)cc(N4CCCCC4)c3)c3ccccc23)n1`, with 116 to 117 °C.
Consider `CC(C)(C)OC(=O)CCc1ccnc(-c2nc(=O)c3ccc(F)cc3s2)c1`, for which the melting point turned out to be 138 °C.
The compound `COc1cc2c(cc1OC)[C@@H]1CN(C)CC[C@@H]1N=C2c1ccc(C)c(C)c1` (relative stereo) showed a melting point of 182 to 184 °C.
With `Cc1ccc(C=CC(=O)N[C@@H](Cc2ccc(OCCc3nc(-c4ccccc4)oc3C)c(Br)c2)C(=O)O)cc1`, the melting point lay within 243 to 245 °C.
`COC12CC(CCOC(=O)c3[nH]c(C)cc3C)CN(C)C1Cc1cn(C)c3cccc2c13` (centres undefined) registered a melting point of 152 to 153 °C.
With `O=C(O)c1cc(F)c(O)nc1Nc1ccc(F)cc1F` the figure was 213 to 216 °C.
In turn, `Cn1c(C(F)(F)F)cc(=O)[nH]c1=O` gave a melting point of 140 to 142 °C.
Consider `CCC(=O)Oc1cc(OC)cc(OC)c1C(=O)C=Cc1cccs1`, for which the melting point came to 127 °C.
`CCCn1c(=O)c2[nH]c(C3CCOCC3)nc2n(CCC)c1=O` registered a melting point of 171 to 172 °C.
Turning to `Nc1ccc(Sc2cc(F)ccc2CC(=O)O)cc1`, the melting point was in the range of 151 to 155 °C.
`Oc1cccc(C#Cc2ccc(C(F)(F)F)cc2)c1` displayed a melting point of 131 to 132 °C.
On to `CCOC(=O)c1sc2cc(OCc3cccnc3)ccc2c1Sc1ccccc1`, for which the melting point is 94 to 95 °C.
With `COc1ccc2c(c1)nnc1cc(OC)ccc12`, the melting point fell in the range of 200 to 202 °C.
Compound `O=C(c1ccc2nonc2c1)N1CC2CC1C(Cl)C2Cl` (centres undefined) returned a melting point of 156 to 157 °C.
For `COC(=O)c1ccc(Nc2cccc3ccccc23)cc1`, the melting point lay in the range of 130 to 132 °C.
In turn, `CN(O)CCCc1ccc2c(c1)C(=O)c1ccccc1CO2` had a melting point of 113 to 114 °C.
With `CCCNC(=O)CSc1nc(-c2ccccc2)c(-c2ccccc2)[nH]1` the figure was 183 to 185 °C.
Consider `Cc1cccc([N+](=O)[O-])c1C#N`, for which the melting point fell in the range of 101 to 103 °C.
Then `Nc1n[nH]c(-c2ccco2)n1`, with 204 to 206 °C; and `O=C(CI)c1cc(OCc2ccccc2)c(OCc2ccccc2)c(OCc2ccccc2)c1`, with 110 to 112 °C.
In turn, `CC#CCOc1cc2c(cc1CCC)OCO2` had a melting point of 39 to 40 °C.
Turning to `CN(C)Cc1ccc(CSCCNc2ncc(N)c(=O)[nH]2)o1`, the melting point is 127 to 132 °C.
With `O=C1OC(=O)c2cnccc21` the figure was 72 to 74 °C; with `CN1C(=O)C(=CNc2ccncc2)C(=O)N(C)C1=O`, 233 to 235 °C; with `COc1cc(OCc2ccncc2)ccc1/C=C/c1cc(/C=C/c2ccc3[nH]ccc3c2)n[nH]1`, 133 to 141 °C.
Compound `CC(=O)c1ccc2c(c1)Cc1cccnc1O2` returned a melting point of 142 to 144 °C.
`CC(C)(C)OC(=O)NC1CN(C(C(=O)OC(c2ccccc2)c2ccccc2)c2ccc(OC(=O)OC(C)(C)C)cc2)C1=O` (centres undefined) came in with a melting point of 155 to 157 °C.
`CCOC(=O)c1c[nH]nc1OC(C)C` yielded a melting point of 55 to 56 °C.
Consider `COc1ccc(C2=NN(c3nc(C)ccc3C(F)(F)F)C(=O)C3CC=CCC23)cc1Cl` (centres undefined), for which the melting point fell in the range of 156 to 157 °C.
Consider `COc1ccccc1CNC(=O)c1[nH]c2ccc(Cl)cc2c1S(=O)(=O)c1ccccc1`, for which the melting point is 235 to 237 °C.
The compound `CC#CN1N=C(c2ccc(F)cc2)c2cc(Cl)ccc2CS1(=O)=O` yielded a melting point of 139 to 140 °C.
With `CCn1c2c(c3cc(OC)c(OC)cc3c1=O)C(=O)c1cc3c(cc1-2)OCO3` the figure was 291 to 293 °C; with `COc1ccc(OC)c(C(=O)Nc2ccc(N3CCCC3)cc2C(C)=O)c1`, 137 to 140 °C; with `COc1ccccc1C(=O)Nc1ccccc1C(c1ccc(O)cc1)c1ccc(O)cc1`, 258 °C.
Regarding `CC(C)C[C@H](NC(=O)[C@H](Cc1ccccc1)NP(=O)(OCc1ccccc1)OCc1ccccc1)C(=O)O`, the melting point lay in the range of 90 to 92 °C.
In turn, `COc1cc(N)cc(C)c1OCCCN1CCN(c2cccc3sccc23)CC1` returned a melting point of 155 to 158 °C.
`CC(=O)c1c(-c2ccncc2)[nH]c(-c2ccncc2)c1CO`: the melting point lay in the range of 205 to 207 °C.
As to `N#Cc1cccnc1N1CCN(CC(=O)Nc2ccccc2[N+](=O)[O-])CC1`, the melting point lay in the range of 134 to 136 °C.
In turn, `CCCCC(CC)CNc1nc(N)nc(N)n1` (centres undefined) returned a melting point of 81 °C.
Compound `CC1(C)C=C(CCl)CS1(=O)=O` gave a melting point of 59 to 60 °C.
Then `Cc1c(C(=O)Nc2ccc(N3CCC(N4CCOCC4)CC3)cc2C#N)cnn1-c1ccc(C(F)(F)F)cc1`, with 210 to 212 °C.
`Cc1cc(CCCOc2c(C)cc(C(=O)O)cc2C)on1` yielded a melting point of 156 to 157 °C.
With `CCOC(=O)CC1(S(N)(=O)=O)c2ccccc2-c2ccc(Cl)cc21` (centres undefined), the melting point fell in the range of 246 to 248 °C.
Take `COc1ccc(N2CCN(C)CC2)c2c1OCC(C(=O)Nc1ccc(N3CCOCC3)cc1)C2` (centres undefined): the melting point fell in the range of 202 to 204 °C.
`COc1cccc(C(O)C2c3ccccc3Cc3ccccc32)c1` (centres undefined) came in with a melting point of 106 °C.
With `CCN(CC)CCNC(=O)Cn1c(-c2ccc(Cl)cc2)nc2cccnc21` the figure was 142 to 143 °C; with `O=C(O)CON=C(c1ccc(Cl)cc1)c1ccc(Cl)cc1`, 147 to 148 °C; with `CCOc1cc(C(C)=O)ccc1OCCCN1CCC(c2noc3cc(F)ccc23)CC1`, 112 to 114 °C.
Turning to `CC(=O)NCc1ccc(CN2CCN(c3ccc(F)cc3)CC2)cc1[N+](=O)[O-]`, the melting point fell in the range of 112 to 114 °C.
Turning to `CSc1ccc(Br)c2c1C1=NOCC1C2` (centres undefined), the melting point lay within 127 to 135 °C.
Then `CCOC(=O)C1=C(C)Nc2ccnc(OC(C)C)c2C1c1ccccn1` (centres undefined), with 191 to 193 °C; and `Cc1ccc(S(=O)(=O)c2ccc3c(c2)c(CCN(C)C(=O)OC(C)(C)C)c(C)n3C)cc1`, with 129 to 133 °C.
`CNC(=O)NC(=O)C(CC1CCCC1)c1ccc(S(C)(=O)=O)c(Br)c1` (centres undefined) came in with a melting point of 259 to 260 °C.
`Cc1ccnc2c(N)cc(F)cc12` registered a melting point of 100 to 101 °C.
On to `Cc1cc(NCCCCCCBr)ccc1O`, for which the melting point lay within 144 to 146 °C.
In the case of `O=c1ccc(-c2nc3ccccc3s2)cn1Cc1ccc(Cl)c(F)c1`, the melting point is 164 °C.
Consider `FC(F)(F)c1cc2cc3cc4cc(Sc5ccccc5)c(Sc5ccccc5)cc4cc3cc2cc1C(F)(F)F`, for which the melting point is above 260 °C.
For `Cc1ccc(Sc2cncc3sc(C(N)=S)cc23)cc1`, the melting point is 181 to 183 °C.
Then `Cc1cc2c(c3ccc(=O)[nH]c13)OC(CNC(=O)CN(C)C)C2` (centres undefined), with above 250 °C.
Compound `CCCCS(=O)(=O)Nc1c(C)c(C)c2c(c1C)C(c1ccc(C(C)C)cc1)CO2` (centres undefined) showed a melting point of 96 to 97 °C.
The compound `COc1cc2c(c3c1OC(C)(C)C3)C(c1cccc(NC(=O)C(C)(C)CCl)c1)=NC(C)(C)C2` had a melting point of 189 to 191 °C.
Consider `CCOC(=O)/C=C/c1cccc(-c2c(CC(=O)Nc3ccc(F)cc3C(F)(F)F)c(=O)oc3cc(Cl)c(C)cc23)c1`, for which the melting point was 193 to 196 °C.
Turning to `CC(=O)SC[C@H]1CCCCCC[C@H](C(=O)O)NC1=O` (relative stereo), the melting point was in the range of 144 to 145 °C.
Take `O=C1NC(=O)C(c2c[nH]c3ccccc23)=C1c1ccccc1`: the melting point turned out to be 256 °C.
